Values belong to the compound of their own block, whether it stands above or below them.
Experiments:
RKO = assay: Cell viability assay (MTT), RKO; type: cell-based; details: read-out: RKO EC50 (72 h), RKO cells
Experimental: Row H of the plate contained the controls. Wells H1-H3 received 20 μL of assay media.
Further dilutions were used for potent peptides.
80 µL of assay media was removed from each well. […] Cell viability was analyzed against the DMSO controls.

MDM2 = MDM2 (Homo sapiens, UniProt Q00987); assay: Competitive fluorescence polarization assay for MDM2; type: binding
Chain of MDM2 (Q00987 1-125): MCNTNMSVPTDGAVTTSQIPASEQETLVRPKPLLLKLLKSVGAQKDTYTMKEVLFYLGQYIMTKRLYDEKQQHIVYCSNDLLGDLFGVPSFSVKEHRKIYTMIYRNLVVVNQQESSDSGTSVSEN
Experimental: 1 mM of FAM-labeled linear peptide (in 100% DMSO) was diluted to 100 μM with DMSO (dilution 1:10). Then, diluted solution was further diluted from 100 μM to 10 μM with water (dilution 1:10), and diluted again with FP buffer from 10 μM to 40 nM (dilution 1:250). […] The diluted FAM-labeled peptides were kept in the dark until use.
Unlabeled peptide dose plates were prepared with FP buffer starting with 1 μM (final) of the peptide. […] 10 mM of the solution (in 100% DMSO) with DMSO to 5 mM (dilution 1:2); dilution from 5 mM to 500 μM with H2O (dilution 1:10); and dilution with FP buffer from 500 μM to 20 μM (dilution 1:25). […] 10 μl of 10 nM (4×) of FAM-labeled peptide was added into each well, and the wells were incubated for 3 h before being read.

MDMX = molecular target: T1, MDMX (Homo sapiens, UniProt O15151); assay: Competitive fluorescence polarization assay for MDMX; type: binding
T1 sequence (O15151 1-125): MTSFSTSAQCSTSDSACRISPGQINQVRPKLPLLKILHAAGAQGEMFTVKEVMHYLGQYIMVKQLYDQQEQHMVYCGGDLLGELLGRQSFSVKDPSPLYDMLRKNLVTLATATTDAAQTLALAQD
Experimental: MDMX (40 kD) was diluted into FP buffer (high-salt buffer 200 mM NaCl, 5 mM CHAPS, pH 7.5) to make a 300 nM (2×) working stock solution. 20 μl of the 300 nM (2×) of protein stock solution was added into each well of 96-well black microplate. 1 mM (in 100% DMSO) of a FAM-labeled linear peptide was diluted with DMSO to a concentration of 100 μM (dilution 1:10). The solution was diluted from 100 μM to 10 μM with water (dilution 1:10), and diluted further with FP buffer from 10 μM to 40 nM (dilution 1:250). […] The diluted FAM-labeled peptide was kept in the dark until use. An unlabeled peptide dose plate was prepared with FP buffer starting with a concentration of 5 μM (final) of a peptide. […] 10 mM (in 100% DMSO) of the solution was diluted with DMSO to prepare a 5 mM (dilution 1:2) solution. The solution was diluted from 5 mM to 500 μM with H2O (dilution 1:10), and diluted further with FP buffer from 500 μM to 20 μM (dilution 1:25). […] 10 μl of the serially diluted unlabeled peptides were added to each well, which was filled with 20 μl of the 300 nM protein solution. 10 μl of the 10 nM (4×) FAM-labeled peptide solution was added into each well, and the wells were incubated for 3 h before reading.

H69 xenograft tumors = assay: Anti-tumor activity of topotecan with AP-1, H69 model; type: in vivo, nu/nu mice; details: H69, topotecan days 1-5, FIG. 17B
Experimental: (§1) C57BL/6 mice bearing established syngeneic MC38 colon cancer tumors, or nu/nu mice bearing established H69 or H211 xenograft tumors were treated with topotecan on days 1-5 and either AP-1 or vehicle on days 0-4. Median tumor volume and mouse survival was assessed.

H211 xenograft tumors = assay: Anti-tumor activity of topotecan with AP-1, H211 model; type: in vivo, nu/nu mice; details: H211, topotecan days 1-5, FIG. 17C
Experimental: as §1

MC38 colon cancer tumors = assay: Anti-tumor activity of topotecan with AP-1, MC38 model; type: in vivo, C57BL/6 mice; details: MC38, topotecan days 1-5, FIG. 17A
Experimental: as §1

gut tissue = assay: Topotecan-induced mucositis (gut histopathology); type: in vivo, C57BL/6 mice; details: Group 3: […] topotecan days 2-6, 10 mice
Experimental: The effect of a peptidomimetic macrocycle of the disclosure on topotecan-induced mucositis is assessed in a controlled, in vivo study. Four groups of mice (10 mice per group) are involved in the study, and administration of agents occurs over a 6-day treatment period. The first group of mice (Group 1) is treated with a vehicle control on days 2, 3, 4, 5, and 6 of the treatment period. The second group of mice (Group 2) is treated intravenously with 2.4 mg/kg of a peptidomimetic macrocycle on days 1, 2, 3, 4, and 5 of a 6-day treatment period. The third group of mice (Group 3) is treated with 1.5 mg/kg of topotecan on days 2, 3, 4, 5, and 6 of the 6-day treatment period. The fourth group of mice (Group 4) is treated with 2.4 mg/kg of the peptidomimetic macrocycle on days 1, 2, 3, 4, and 5 of the 6-day treatment period and 1.5 mg/kg of topotecan on days 2, 3, 4, 5, and 6 of the 6-day treatment period. Gut samples are then taken from mice on days 7 and 9 post treatment. Histopathology analysis of gut samples is performed to assess hypertrophy/hyperplasia. In some embodiments, all gut samples from mice in Groups 1 and 2 receive a hypertrophy/hyperplasia score of 0. […]
C57BL/6 mice (n=10 per group) were divided into four treatment groups. […] Images and gut tissues and quantification of pathology scores can be seen in FIG. 24A.

Compound: CC(=O)N[C@@H](CC(C)C)C(=O)N[C@H](C(=O)N[C@@H](Cc1ccccc1)C(=O)N[C@]1(C)CCCCCCC=CCCC[C@@](C)(C(=O)N[C@@H](CO)C(=O)N[C@@H](C)C(=O)N[C@@H](C)C(N)=O)NC(=O)[C@H](CC2CCCCC2)NC(=O)[C@H](CCC(N)=O)NC(=O)[C@H](C)NC(=O)[C@H](Cc2c[nH]c3ccccc23)NC(=O)[C@H](Cc2ccc(O)cc2)NC(=O)[C@H](CCC(=O)O)NC1=O)[C@@H](C)O (single isomer, unassigned) [compound 148]
- EC50 (RKO): 1 to 30 µM

Compound: CC(=O)N[C@@H](CC(C)C)C(=O)N[C@H](C(=O)N[C@@H](Cc1ccccc1)C(=O)N[C@]1(C)CCCCCCC=CCCC[C@@](C)(C(=O)N[C@@H](CO)C(=O)N[C@@H](C)C(=O)N[C@@H](C)C(N)=O)NC(=O)[C@H](C2CCCC2)NC(=O)[C@H](CCC(N)=O)NC(=O)[C@H](C)NC(=O)[C@H](Cc2c[nH]c3ccccc23)NC(=O)[C@H](Cc2ccc(O)cc2)NC(=O)[C@H](CCC(=O)O)NC1=O)[C@@H](C)O (single isomer, unassigned) [compound 150]
- EC50 (RKO): 1 to 30 µM

- IC50 (MDM2): 0.1 to 1 µM
- Ki (MDM2): 0.1 to 1 µM
- IC50 (MDMX): > 1 µM
- Ki (MDMX): > 1 µM
Compound: CC(=O)N[C@@H](CC(C)C)C(=O)N[C@H](C(=O)N[C@@H](C)C(=O)N[C@]1(C)CCCCCCC=CCCC[C@@](C)(C(=O)N[C@@H](CO)C(=O)N[C@@H](C)C(=O)N[C@@H](C)C(N)=O)NC(=O)[C@H](CC2CCC2)NC(=O)[C@H](CCC(N)=O)NC(=O)[C@H](C)NC(=O)[C@H](Cc2c[nH]c3ccccc23)NC(=O)[C@H](Cc2ccc(O)cc2)NC(=O)[C@H](CCC(=O)O)NC1=O)[C@@H](C)O (single isomer, unassigned) [compound 252]

Compound: CC(=O)N[C@@H](CCC(=O)O)C(=O)N[C@H](C(=O)N[C@@H](Cc1ccccc1)C(=O)N[C@]1(C)CCCCCCC=CCCC[C@@](C)(C(=O)N[C@@H](C)C(=O)N[C@@H](C)C(=O)N[C@@H](C)C(=O)N[C@@H](C)C(=O)N[C@@H](C)C(=O)N[C@H](C)C(N)=O)NC(=O)[C@H](CC(C)C)NC(=O)[C@H](CCC(N)=O)NC(=O)[C@H](C)NC(=O)[C@H](Cc2c[nH]c3ccccc23)NC(=O)[C@H](Cc2ccc(O)cc2)NC(=O)[C@H](CCC(=O)O)NC1=O)[C@@H](C)O (single isomer, unassigned) [compound 341]
- EC50 (RKO): 1 to 30 µM

Compound: CC(=O)N[C@@H](CC(C)C)C(=O)N[C@H](C(=O)N[C@@H](Cc1ccccc1)C(=O)N[C@]1(C)CCCCCCC=CCCC[C@@](C)(C(=O)N[C@@H](CO)C(=O)N[C@@H](C)C(=O)N[C@@H](C)C(=O)N[C@H](C)C(N)=O)NC(=O)[C@H](CC2CCC2)NC(=O)[C@H](CCC(N)=O)NC(=O)[C@H](C)NC(=O)[C@H](Cc2c[nH]c3ccccc23)NC(=O)[C@H](Cc2ccc(O)cc2)NC(=O)[C@H](CCC(=O)O)NC1=O)[C@@H](C)O (single isomer, unassigned) [compound 353]
- EC50 (RKO): 1 to 30 µM

Compound: CC(=O)N[C@@H](C)C(=O)N[C@@H](CC(C)C)C(=O)N[C@H](C(=O)N[C@@H](Cc1ccccc1)C(=O)N[C@]1(C)CCCCCCC=CCCC[C@@](C)(C(=O)N[C@@H](CO)C(=O)N[C@@H](C)C(=O)N[C@@H](C)C(=O)N[C@H](C)C(N)=O)NC(=O)[C@H](CC2CCC2)NC(=O)[C@H](CCC(N)=O)NC(=O)[C@H](C)NC(=O)[C@H](Cc2c[nH]c3ccccc23)NC(=O)[C@H](Cc2ccc(O)cc2)NC(=O)[C@H](CCC(=O)O)NC1=O)[C@@H](C)O (single isomer, unassigned) [compound 355]
- EC50 (RKO): 1 to 30 µM

Compound: CC(=O)N[C@@H](C)C(=O)N[C@@H](C)C(=O)N[C@@H](CC(C)C)C(=O)N[C@H](C(=O)N[C@@H](Cc1ccccc1)C(=O)N[C@]1(C)CCCCCCC=CCCC[C@@](C)(C(=O)N[C@@H](CO)C(=O)N[C@@H](C)C(=O)N[C@@H](C)C(=O)N[C@@H](C)C(=O)N[C@H](C)C(N)=O)NC(=O)[C@H](CC2CCC2)NC(=O)[C@H](CCC(N)=O)NC(=O)[C@H](C)NC(=O)[C@H](Cc2c[nH]c3ccccc23)NC(=O)[C@H](Cc2ccc(O)cc2)NC(=O)[C@H](CCC(=O)O)NC1=O)[C@@H](C)O (single isomer, unassigned) [compound 358]
- EC50 (RKO): 1 to 30 µM

Compound: CC(=O)N[C@@H](C)C(=O)N[C@@H](C)C(=O)N[C@@H](CC(C)C)C(=O)N[C@H](C(=O)N[C@@H](Cc1ccccc1)C(=O)N[C@]1(C)CCCCCCC=CCCC[C@@](C)(C(=O)N[C@@H](CO)C(=O)N[C@@H](C)C(=O)N[C@@H](C)C(=O)N[C@@H](C)C(=O)N[C@H](C)C(N)=O)NC(=O)[C@H](CC2CCC2)NC(=O)[C@H](CCC(N)=O)NC(=O)[C@H](C)NC(=O)[C@H](Cc2c[nH]c3ccccc23)NC(=O)[C@H](Cc2ccc(O)cc2)NC(=O)[C@H](CCC(=O)O)NC1=O)[C@@H](C)O (single isomer, unassigned) [compound 359]
- EC50 (RKO): 1 to 30 µM

Compound: CC[C@H](C)[C@H](NC(=O)[C@H](C)NC(=O)[C@H](C)NC(=O)[C@]1(C)CCCC=CCCCCCC[C@@](C)(NC(=O)[C@H](Cc2ccccc2)NC(=O)[C@@H](NC(=O)[C@H](CC(C)C)NC(=O)CN(C)C)[C@@H](C)O)C(=O)N[C@@H](CCC(=O)O)C(=O)N[C@@H](Cc2ccc(C(=O)O)cc2)C(=O)N[C@@H](Cc2c[nH]c3ccccc23)C(=O)N[C@@H](C)C(=O)N[C@@H](CCC(N)=O)C(=O)N[C@@H](CC2CCC2)C(=O)N1)C(=O)N[C@H](C)C(N)=O (single isomer, unassigned) [compound 440]
- EC50 (RKO): 1 to 30 µM

Compound: CCCC[C@H](NC(=O)[C@H](C)NC(=O)[C@H](C)NC(=O)[C@]1(C)CCC/C=C/CCCCCC[C@@](C)(NC(=O)[C@H](Cc2ccccc2)NC(=O)[C@@H](NC(=O)[C@H](CC(C)C)NC(C)=O)[C@@H](C)O)C(=O)N[C@@H](C)C(=O)N[C@@H](Cc2ccc(O)cc2)C(=O)N[C@@](C)(Cc2c[nH]c3ccccc23)C(=O)N[C@@H](C)C(=O)N[C@@H](CCC(N)=O)C(=O)N[C@@H](CC(C)C)C(=O)N1)C(=O)N[C@@H](C)C(N)=O [compound 388]
- EC50 (RKO): 1 to 30 µM

Compound: CC(C)C[C@H](NC(=O)CN(C)C)C(=O)N[C@H](C(=O)N[C@@H](Cc1ccccc1)C(=O)N[C@]1(C)CCCCCCC=CCCC[C@@](C)(C(=O)N[C@@H](CO)C(=O)N[C@@H](C)C(=O)N[C@@H](C)C(N)=O)NC(=O)[C@H](CC2CCC2)NC(=O)[C@H](CCC(N)=O)NC(=O)[C@H](C)NC(=O)[C@H](Cc2c[nH]c3ccccc23)NC(=O)[C@H](Cc2ccc(O)cc2)NC(=O)[C@H](CCC(=O)O)NC1=O)[C@@H](C)O [compound 435]
- EC50 (RKO): 1 to 30 µM

Compound: CC[C@@]1(O)C(=O)OCc2c1cc1n(c2=O)Cc2cc3c(CN(C)C)c(O)ccc3nc2-1 [topotecan]
- survival (H69 xenograft tumors): increased
- tumor volumes (H69 xenograft tumors): decreased
- survival (H211 xenograft tumors): increased
- tumor volumes (H211 xenograft tumors): decreased
- survival (MC38 colon cancer tumors): increased
- tumor volumes (MC38 colon cancer tumors): decreased
- mice with hyperplasia/hypertrophy score of 3 (gut tissue): about 70%
- mice with hypertrophy/hyperplasia score of 2 (gut tissue): about 30%

Source: US20200289609A1, “PEPTIDOMIMETIC MACROCYCLES AND USES THEREOF” (Aileron Therapeutics, Inc., priority 2019, published 2020)
